We go through 1 sequence from patent publication US8012944B2, “Method for treating cancer using IAP antisense oligomer and chemotherapeutic agent” (Pharmascience Inc., priority 2003, dated 2011).

“Also recorded” adds a separate entry of the source.

The subject of data set [1] is H460 cells. Kind of data set: Nuclear morphology (DAPI staining). Conditions: 1.2 μM. Format: cell-based, human. As to the method:
Cells were treated with liposome-oligonucleotde complexes for 4.5 h, and incubated for another 48 h at 37° C. in the medium without transfection reagent or oligonucleotides. Cells were harvested and stained with 0.10 μg/ml DAP1 (4′, 6-diamidino-2-2-phenylindole) for 30 min at room temperature. Cells were placed on a glass slide, cytospun, and viewed with a Leica microscope and 40× objective lens under UV fluorescent illumination. Digital images were captured using Imagedatabase V. 4.01 Software (Leica, Germany).

Data set [2] has as its system human XIAP protein. Kind of data set: XIAP protein in H460 tumor xenografts (western blot). Format: in vivo, mouse xenograft. As to the method: To correlate the tumor growth inhibitory effects of G4 AS oligonucleotides with XIAP protein expression, we examined the changes in XIAP expression at the end of the in vivo treatment with 15 mg/kg of G4 AS and SC oligonucleotides. At day 21 or 24 post-tumor inoculation when tumors reached 1 cm^3 in size (FIG. 17), tumors were harvested and lysates from tumor homogenates were used for western blot analysis. XIAP and β-actin antibodies against the human protein were used, allowing for determination of human XIAP levels obtained from tumor cells specimens without contamination from XIAP derived from mouse cells. […]
(§1) The cells or tumor tissue samples were lysed with ice-cold lysis buffer (50 mM Tris, 150 mM NaCl, 2.5 mM EDTA, 0.1% SDS, 0.5% sodium deoxycholate, 1% NP-40, 0.02% sodium azide) containing protease inhibitors (Complete-Mini protease inhibitor tablets; Boehringer Mannheim GmBH, Mannheim, Germany). […] Protein content in the lysed extracts was determined using a detergent-compatible Bio-Rad assay (Bio-Rad Labs, Hercules, Calif.). […] Proteins were detected by enhanced chemiluminescence (ECL; Amersham Pharmacia Biotech, Buckinghamshire, England) and visualized after exposure to Kodak autoradiography film. Scanning densitometry (Molecular Dynamics, Sunnyvale, Calif.) was performed to quantify band intensities by volume/area integration. […]

In data set [3] the test system is Bcl-2 and Bax. Kind of data set: Bcl-2:Bax ratio in H460 cells (western blot). Format: cell-based, human. The following applies: 1.2 μM. As to the method:
FIGS. 11A and 11B are schematic illustrations showing XIAP oligonucleotide-mediated effects on caspase activation. The effect of XIAP oligonucleotides F3, G4, or C5, or their respective RP and SC ODN controls at 1.2 μM on the expression of pro-caspase-3, PARP (both full length (116 kDa) and processed (85 kDa)) (FIG. 10A) and Bcl-2 and Bax protein levels (FIG. 10B) in transfected H460 cells compared to control is shown. Proteins expression was analyzed by western blotting. Bcl-2 and Bax protein levels were normalized to cellular actin levels and quantified by densitometry. […]
as §1
In general terms: In western blotting, separated proteins are transferred to a membrane and probed.

The subject of data set [4] is H460 cells. Put plainly: H460 cell growth, viability or death (MTT assay). Format: cell-based, human. Conditions: 1.2 μM. Here is the method: Growth inhibition of […] cells was determined by the colorimetric MTT cell viability/proliferation assay. In brief, cells were treated with liposome-oligonucleotide complexes for 4.5 h, then incubated for another 48 h at 37° C. in medium without transfection reagent or oligonucleotides in the presence or absence of anticancer drugs. MTT (25 μg/well) was added to each well, and the plates incubated for 3 h at 37° C. Following the incubation step, the colored formazan product was dissolved by the addition of 200 μl DMSO. Plates were read using the microtiter plate reader (Dynex Technologies Inc., Chantilly, Va.) at a wavelength of 570 nm. The percentage of surviving cells in wells treated with oligonucleotides was normalized to untreated controls. All assays were performed in triplicate.
In general terms: Tetrazolium dyes change colour on reduction, which living cells bring about.

Data set [5] relates to pro-caspase-3, PARP. Kind of data set: Pro-caspase-3 and PARP protein in H460 cells (western blot). The following applies: 1.2 μM. The format is cell-based, human. Here is the method: One day prior to transfection, H460 cells were plated in 6- or 96-well tissue culture plates. Phosphorothioate antisense oligonucleotides were delivered into cells with Lipofectamine 2000 (Life Technologies) in the form of liposome-oligonucleotide complexes. Following a 4.5 or 6 h transfection, the transfection medium was replaced with RPMI medium containing 10% FBS, and the cells incubated for another 24 or 48 h.
The cells or tumor tissue samples were lysed with ice-cold lysis buffer (50 mM Tris, 150 mM NaCl, 2.5 mM EDTA, 0.1% SDS, 0.5% sodium deoxycholate, 1% NP-40, 0.02% sodium azide) containing protease inhibitors (Complete-Mini protease inhibitor tablets; Boehringer Mannheim GmBH, Mannheim, Germany). After incubation for 30 min on ice, samples were centrifuged at 10,000 rpm for 15 min, and stored at −20° C. Protein content in the lysed extracts was determined using a detergent-compatible Bio-Rad assay (Bio-Rad Labs, Hercules, Calif.). Equal amounts of protein (40 μg/lane) were separated on 12% SDS-polyacrylamide gels or 4-15% gradient SDS-polyacrylamide pre-made gels (Bio-Rad) and transferred to nitrocellulose membranes. Primary antibodies against XIAP, Bcl-2 (DAKO, Glostrup, Denmark), Bax (Sigma, St. Louis, Mo.), β-actin (Sigma), caspase-3 (BD PharMingen, San Diego, Calif.), and PARP (BD PharMingen) were used. The secondary antibody was the appropriate horseradish-conjugated anti-mouse or anti-rabbit IgG (Promega, Madison, Wis.). Proteins were detected by enhanced chemiluminescence (ECL; Amersham Pharmacia Biotech, Buckinghamshire, England) and visualized after exposure to Kodak autoradiography film. Scanning densitometry (Molecular Dynamics, Sunnyvale, Calif.) was performed to quantify band intensities by volume/area integration. The amount of XIAP, caspase-3, Bcl-2 and Bax in cells was normalized to their respective lane β-actin levels, upon stripping and reprobing.

As for “GCTGAGTCTCCATATTGCC [G4 AS] (chemistry not given here)”, in data set [1], the “nuclear morphological changes characteristic of apoptosis” value is “underwent morphological changes characteristic of apoptosis; also recorded: significant nuclear DNA condensation and fragmentation”. In addition, the “down-regulation of XIAP protein in tumors vs control tumors” value in data set [2] (15 mg/kg, day 21 or 24, P<0.005) was “approximately 85%”. Moreover, the “down-regulation of XIAP protein in tumor xenografts” value in data set [2] (systemic administration) came out at 85%. Also, the “ratio of Bcl-2:Bax” value in data set [3] is “unchanged”. In data set [4] (H460 cells), this sequence displayed a cell death of 60%. Besides, the “reduction of H460 cell growth relative to untreated control” value in data set [4] (MTT, 48 hours after transfection) is 55%. The “reduction of pro-caspase-3 protein levels compared to untreated control” value in data set [5] came out at 60%.
